Measured values published in EP4737449A1 (Changchun Genescience Pharmaceutical Co., Ltd., priority 2023, dated 2025).

Each compound was assayed against T1, p53-Y220C mutant protein (Homo sapiens, UniProt P04637, Y220C) (assay: In vitro DNA binding activity assay (TR-FRET)). Settings: concentration required to increase the binding activity of protein to DNA by 50%.
T1 construct: The recombinant Y220C p53 DBD protein with his-tag
Format: biochemical
Experimental: The activity of the compound to modulate the binding of the p53-Y220C mutant protein to DNA was detected using TR-FREt (Time-Resolved Fluorescence Resonance Energy Transfer). The recombinant Y220C p53 DBD protein with his-tag and the DNA sequence with biotin label were prepared firstly. Donor Eu(Europium)-SA(Streptavidin) can be bound to the DNA sequence through biotin, receptor for his antibody attached to alphaphycocyanin(APC, allophycocyanin), and his antibody can be bound to the Y220C p53 DBD protein with his-tag. When exposed to an excitation light with a wavelength of 340 nm, the donor Eu(Europium)-SA(Streptavidin) can emit fluorescence with a wavelength of 615 nm. If the donor and the receptor are close to each other, the donor will transfer part of the energy to the receptor and produce fluorescence with a wavelength of 665 nm. […] If there is no interaction, only 615 nm fluorescence is produced. • 1) Experimental steps • a. Adding 4 µL of dilute compound solution to each well of a 384-well microplate; • a. Adding 4 µL of 4X P53 working solution to each well of the 384-well microplate; • c. Sealing the 384-well microplate and equilibrating the system at room temperature for 60 min; • d. Adding 4 µl of biotin DNA solution to the 384-well microplate; • e. Adding 4 µl of 4X test solution (MAb Anti-6His-Eu and streptavidin-d2) to each well of the 384-well microplate; • f. Incubating overnight in the dark; and • g. Reading data of 665 nm and 615 nm wavelengths on the BMG multifunctional microplate reader. • 2) Data analysis • a. Calculating the ratio for each well (Ratio665 nm/615 nm-Ratiobackground); • b. Calculating the activity percentage (%activity) as follows: C = (Ave_Ac−Ave_Ba)/(Ave_Dc−Ave_Bd) [formula] R data = (A−Ave_Ba−CD)/(D−Ave_Bd)*(Ave_Dc−Ave_Bd) [formula] % Activity = R data/Ave_VC*100 [formula] • A: Fluorescence intensity of the sample at 665 nm; D: Fluorescence intensity of the sample at 615 nm; • Ba: Background fluorescence intensity of the culture plate at 665 nm; Bd: Background fluorescence intensity of the culture plate at 615 nm; • Dc: Background fluorescence intensity of HIS-E at 615 nm; Ac: Background fluorescence intensity of streptavidin-d2 at 665 nm); and • c. Calculating SC150 and plotting dose-effect curve
Compared to the absence of the compound of the present invention, the activation percentage of binding of the p53 mutant protein to DNA in the presence of the compound of the present invention is expressed as SC150, which indicates the concentration of the compound required to increase the DNA binding activity of the p53 mutant protein by 50%. The SC150 is calculated using Prism™.
Work on `CN1CC[C@@H](Nc2cccc3c(CC(F)(F)F)c(C#CCNC(=O)c4cnn(CC5CC5)c4)nn23)[C@@H](F)C1` [Compound 268, 1-(cyclopropylmethyl)-N-[3-(7-{[(3S,4R)-3-fluoro-1-methylpiperidin-4-yl]amino}-3-(2,2,2-trifluoroethyl)pyrazolo[1,5-a]pyridin-2-yl)prop-2-yn-1-yl]-1H-pyrazole-4-carboxamide] yielded an SC150 of 10 nM. `CC(C1CC1)n1cc(C(=O)NCC#Cc2nn3c(N[C@@H]4CCN(C)C[C@@H]4F)cccc3c2CC(F)(F)F)cn1` (stereo partly drawn) [Compound 269, 1-(1-cyclopropylethyl)-N-[3-(7-{[(3S,4R)-3-fluoro-1-methylpiperidin-4-yl]amino}-3-(2,2,2-trifluoroethyl)pyrazolo[1,5-a]pyridin-2-yl)prop-2-yn-1-yl]-1H-pyrazole-4-carboxamide] gave an SC150 of 8 nM. In the case of `Cc1cc(C(=O)NCC#Cc2nn3c(N[C@@H]4CCN(C)C[C@@H]4F)cccc3c2CC(F)(F)F)cn1C` [Compound 273, N-[3-(7-{[(3S,4R)-3-fluoro-1-methylpiperidin-4-yl]amino}-3-(2,2,2-trifluoroethyl)pyrazolo[1,5-a]pyridin-2-yl)prop-2-yn-1-yl]-1,5-dimethyl-1H-pyrrole-3-carboxamide], the SC150 is reported as 11 nM. For `Cc1c(C(=O)NCC#Cc2nn3c(N[C@@H]4CCN(C)C[C@@H]4F)cccc3c2CC(F)(F)F)cnn1C1CC1` [Compound 282, 1-cyclopropyl-N-[3-(7-{[(3S,4R)-3-fluoro-1-methylpiperidin-4-yl]amino}-3-(2,2,2-trifluoroethyl)pyrazolo[1,5-a]pyridin-2-yl)prop-2-yn-1-yl]-5-methyl-1H-pyrazole-4-carboxamide], the SC150 was 19 nM. Work on `CN1CC[C@@H](Nc2cccc3c(CC(F)(F)F)c(C#CCNC(=O)c4cnn(CC5CCCC5)c4N)nn23)[C@@H](F)C1` [Compound 285] yielded an SC150 of 28 nM. For `CC(C)Cn1ncc(C(=O)NCC#Cc2nn3c(N[C@@H]4CCN(C)C[C@@H]4F)cccc3c2CC(F)(F)F)c1N` [Compound 286, 5-amino-N-[3-(7-{[(3S,4R)-3-fluoro-1-methylpiperidin-4-yl]amino}-3-(2,2,2-trifluoroethyl)pyrazolo[1,5-a]pyridin-2-yl)prop-2-yn-1-yl]-1-isobutyl-1H-pyrazole-4-carboxamide], the SC150 was 8 nM. `CN1CC[C@@H](Nc2cccc3c(CC(F)(F)F)c(C#CCNC(=O)c4cnn(CC(C)(C)C)c4N)nn23)[C@@H](F)C1` [Compound 287] showed an SC150 of 23 nM. `Cc1nn(C(C)(C)C)c(N)c1C(=O)NCC#Cc1nn2c(N[C@@H]3CCN(C)C[C@@H]3F)cccc2c1CC(F)(F)F` [Compound 288, 5-amino-1-tert-butyl-N-[3-(7-{[(3S,4R)-3-fluoro-1-methylpiperidin-4-yl]amino}-3-(2,2,2-trifluoroethyl)pyrazolo[1,5-a]pyridin-2-yl)prop-2-yn-1-yl]-3-methyl-1H-pyrazole-4-carboxamide] gave an SC150 of 69 nM. Compound `Cc1cc(N)c(C(=O)NCC#Cc2nn3c(N[C@@H]4CCN(C)C[C@@H]4F)cccc3c2CC(F)(F)F)cn1` [Compound 294, 4-amino-N-[3-(7-{[(3S,4R)-3-fluoro-1-methylpiperidin-4-yl]amino}-3-(2,2,2-trifluoroethyl)pyrazolo[1,5-a]pyridin-2-yl)prop-2-yn-1-yl]-6-methylnicotinamide] has an SC150 of 39 nM. Compound `Cc1ccc(C(=O)NCC#Cc2nn3c(N[C@@H]4CCN(C)C[C@@H]4F)cccc3c2CC(F)(F)F)c(N)n1` [Compound 295, 2-amino-N-[3-(7-{[(3S,4R)-3-fluoro-1-methylpiperidin-4-yl]amino}-3-(2,2,2-trifluoroethyl)pyrazolo[1,5-a]pyridin-2-yl)prop-2-yn-1-yl]-6-methylnicotinamide] has an SC150 of 45 nM. For `CN1CC[C@@H](Nc2cccc3c(CC(F)(F)F)c(C#CCNC(=O)c4ccn5c4CCC5)nn23)[C@@H](F)C1` [Compound 302, N-[3-(7-{[(3S,4R)-3-fluoro-1-methylpiperidin-4-yl]amino}-3-(2,2,2-trifluoroethyl)pyrazolo[1,5-a]pyridin-2-yl)prop-2-yn-1-yl]-2,3-dihydro-1H-pyrrolizine-7-carboxamide], the SC150 was 25 nM. In the case of `CN1CC[C@@H](Nc2cccc3c(CC(F)(F)F)c(C#CCNC(=O)c4cnn(C5(O)CC5)c4)nn23)[C@@H](F)C1` [Compound 303, N-[3-(7-{[(3S,4R)-3-fluoro-1-methylpiperidin-4-yl]amino}-3-(2,2,2-trifluoroethyl)pyrazolo[1,5-a]pyridin-2-yl)prop-2-yn-1-yl]-1-(1-hydroxycyclopropyl)-1H-pyrazole-4-carboxamide], the SC150 is reported as 14 nM. `CN1CC[C@@H](Nc2cccc3c(CC(F)(F)F)c(C#CCNC(=O)c4cnn(C5(F)CC5)c4)nn23)[C@@H](F)C1` [Compound 304] gave an SC150 of 13 nM. `CNc1c(C(=O)NCC#Cc2nn3c(N[C@@H]4CCN(C)C[C@@H]4F)cccc3c2CC(F)(F)F)cnn1C(C)(C)C` [Compound 307, 1-(tert-butyl)-N-[3-(7-{[(3S,4R)-3-fluoro-1-methylpiperidin-4-yl]amino}-3-(2,2,2-trifluoroethyl)pyrazolo [1,5-a]pyridin-2-yl)prop-2-yn-1-yl]-5-(methylamino)-1H-pyrazole-4-carboxamide] gave an SC150 of 32 nM. In the case of `CN1CC[C@@H](Nc2cccc3c(CC(F)(F)F)c(C#CCNC(=O)c4cn(C)c(C(F)F)n4)nn23)[C@@H](F)C1` [Compound 309, 2-difluoromethyl-N-[3-(7-{[(3S,4R)-3-fluoro-1-methylpiperidin-4-yl]amino}-3-(2,2,2-trifluoroethyl)pyrazolo[1,5-a]pyridin-2-yl)prop-2-yn-1-yl]-1-methyl-1H-imidazole-4-carboxamide], the SC150 is reported as 74 nM. `CN1CC[C@@H](Nc2cccc3c(CC(F)(F)F)c(C#CCNC(=O)c4cnn(CCO)c4)nn23)[C@@H](F)C1` [Compound 310, N-[3-(7-{[(3S,4R)-3-fluoro-1-methylpiperidin-4-yl]amino}-3-(2,2,2-trifluoroethyl)pyrazolo[1,5-a]pyridin-2-yl)prop-2-yn-1-yl]-1-(2-hydroxyethyl)-1H-pyrazole-4-carboxamide] gave an SC150 of 11 nM. In the case of `CC(C)c1cc(C(=O)NCC#Cc2nn3c(N[C@@H]4CCN(C)C[C@@H]4F)cccc3c2CC(F)(F)F)no1` [Compound 321, N-[3-(7-{[(3S,4R)-3-fluoro-1-methylpiperidin-4-yl]amino}-3-(2,2,2-trifluoroethyl)pyrazolo[1,5-a]pyridin-2-yl)prop-2-yn-1-yl]-5-isopropylisoxazole-3-carboxamide], the SC150 is reported as 99 nM. In the case of `CC(C)c1cc(C(=O)NCC#Cc2nn3c(N[C@@H]4CCN(C)C[C@@H]4F)cccc3c2CC(F)(F)F)on1` [Compound 323, N-[3-(7-{[(3S,4R)-3-fluoro-1-methylpiperidin-4-yl]amino}-3-(2,2,2-trifluoroethyl)pyrazolo[1,5-a]pyridin-2-yl)prop-2-yn-1-yl]-3-isopropylisoxazole-5-carboxamide], the SC150 is reported as 57 nM. For `CN1CC[C@@H](Nc2cccc3c(CC(F)(F)F)c(C#CCNC(=O)c4ncn(C)n4)nn23)[C@@H](F)C1` [Compound 324, N-[3-(7-{[(3S,4R)-3-fluoro-1-methylpiperidin-4-yl]amino}-3-(2,2,2-trifluoroethyl)pyrazolo[1,5-a]pyridin-2-yl)prop-2-yn-1-yl]-1-methyl-1H-1,2,4-triazole-3-carboxamide], the SC150 was 29 nM. With `CN1CC[C@@H](Nc2cccc3c(CC(F)(F)F)c(C#CCNC(=O)c4cnn(C)n4)nn23)[C@@H](F)C1` [Compound 325, N-[3-(7-{[(3S,4R)-3-fluoro-1-methylpiperidin-4-yl]amino}-3-(2,2,2-trifluoroethyl)pyrazolo[1,5-a]pyridin-2-yl)prop-2-yn-1-yl]-2-methyl-2H-1,2,3-triazole-4-carboxamide] the SC150 was 35 nM. With `CN1CC[C@@H](Nc2cccc3c(CC(F)(F)F)c(C#CCNC(=O)c4cnn(C)c4F)nn23)[C@@H](F)C1` [Compound 327, 5-fluoro-N-[3-(7-{[(3S,4R)-3-fluoro-1-methylpiperidin-4-yl]amino}-3-(2,2,2-trifluoroethyl)pyrazolo[1,5-a]pyridin-2-yl)prop-2-yn-1-yl]-1-methyl-1H-pyrazole-4-carboxamide] the SC150 was 27 nM.
